In the NIST ThermoML archive (doi:10.1016/j.jct.2011.05.022):
± gives the expanded uncertainty stated by the source.

Experiment: molar heat capacity at constant pressure
Details: 101.33 kPa, Liquid, Small sample (50 mg) DSC

Row | SMILES | molar heat capacity at constant pressure (298.2 K) [J/K/mol] | molar heat capacity at constant pressure (323.2 K) [J/K/mol]
1 | CCCC[N+]1(C)CCCC1.N#C[B-](C#N)(C#N)C#N [1-butyl-1-methylpyrrolidinium tetracyanoborate] | 524 ± 53 | 554 ± 56
2 | CCCC[n+]1cccc(C)c1.N#C[B-](C#N)(C#N)C#N [1-butyl-3-methylpyridinium tetracyanoborate] | 495 ± 50 | 524 ± 53
